Data on eleven molecules can be found in ChEMBL document CHEMBL1201862, “PubChem BioAssay data set” (2004).

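Protocol summary: plate cells (96-well), add compound at 5 concentrations, incubate 48 h, interpolate endpoints linearly. At the GI50, growth is halved.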 Calls of active or inactive are those of the source. Rule as the data show it: active = GI50 up to about 1.1 µM and inactive = higher. Where only a bound is given, the exact number is not on record here.

Among the test systems are SR; SN12C; IGROV-1; CAKI-1; A498; T47D; HCC 2998; SNB-19; OVCAR-3; RPMI-8226; MDA-MB-231; SNB-75; HOP-62; MDA-MB-435; SK-MEL-2; DU-145; HCT-15; NCI-H460; EKVX; HL-60.
Assay in all cases: NCI tumour cell line growth inhibition, 48 h

Regarding `C=CCN1C(=O)/C(=C/c2ccccc2)N=C1SC/C=C/C`, the GI50 in the assay on SR is 6.67 µM (inactive); in the assay with SN12C, 40.2 µM (inactive); with IGROV-1, > 100 µM (inactive); in the assay on CAKI-1, > 100 µM (inactive); with A498, 43.7 µM (inactive); with T47D it was 20.2 µM (inactive). Moreover, the GI50 with HCC 2998 was 28.3 µM (inactive); with SNB-19, > 100 µM (inactive); in the assay with OVCAR-3, > 100 µM (inactive); in the assay on RPMI-8226, 15.7 µM (inactive); in the assay on MDA-MB-231 it was 86.7 µM (inactive); in the assay with SNB-75 it was 46.2 µM (inactive). Moreover, the GI50 was > 100 µM (inactive) in the assay with HOP-62; 40.8 µM (inactive) in the assay on MDA-MB-435; 26.2 µM (inactive) in the assay with SK-MEL-2; 57.5 µM (inactive) in the assay with DU-145; 47.5 µM in the assay on HCT-15; 43.8 µM (inactive) in the assay on NCI-H460.

Take `CCOC(=O)/C(C#N)=C/c1ccnc2ccccc12`: the GI50 is 2.28 µM (inactive) in the assay on SR; 76.4 µM (inactive) with SN12C; 40.2 µM (inactive) with IGROV-1; > 100 µM (inactive) with CAKI-1; > 100 µM (inactive) in the assay with A498; > 100 µM (inactive) in the assay on T47D. The GI50 in the assay with HCC 2998 is > 100 µM (inactive); in the assay with SNB-19, 81.7 µM (inactive); with OVCAR-3, 53.7 µM (inactive); in the assay on RPMI-8226 it was 25.4 µM (inactive); in the assay with MDA-MB-231, 83.9 µM (inactive); with SNB-75, > 100 µM (inactive). The GI50 in the assay with HOP-62 was > 100 µM (inactive); with MDA-MB-435, 37.2 µM (inactive); in the assay with EKVX, > 100 µM (inactive); with SK-MEL-2, > 100 µM (inactive); with DU-145 it was > 100 µM (inactive); with HCT-15, 31.9 µM. For the same molecule, the GI50 with NCI-H460 was > 100 µM (inactive).

For the molecule `NC(CCC(=O)c1ccccn1)C(=O)O` (centres undefined), the GI50 in the assay with SR, with SN12C, in the assay on IGROV-1, in the assay with CAKI-1, with A498 and in the assay on T47D was > 100 µM (inactive) each time. In addition, the GI50 in the assay on HCC 2998, in the assay with SNB-19, in the assay on OVCAR-3, with RPMI-8226, with MDA-MB-231 and with HL-60 was > 100 µM (inactive) in each case. The GI50 in the assay with HOP-62 was > 100 µM (inactive); in the assay on MDA-MB-435 it was > 100 µM (inactive); in the assay with EKVX it was > 100 µM (inactive); with SK-MEL-2, > 100 µM (inactive); in the assay with DU-145, > 100 µM (inactive); in the assay on HCT-15 it was greater than 100 µM. The GI50 in the assay on NCI-H460 was > 100 µM (inactive).

As for `N#Cc1cnc(N)nc1NCC1(CO)CC(CCc2ccccc2)C1` (centres undefined), the GI50 in the assay with SR is 20.1 µM (inactive); with SN12C, > 100 µM (inactive); in the assay with IGROV-1, 55 µM (inactive); with CAKI-1 it was > 100 µM (inactive); with A498, 29 µM (inactive); in the assay with T47D it was 0.301 µM (active). For the same molecule, the GI50 is > 100 µM (inactive) in the assay on HCC 2998; 55.3 µM (inactive) with SNB-19; > 90.4 µM (inactive) in the assay with OVCAR-3; > 100 µM (inactive) in the assay on RPMI-8226; 56.2 µM (inactive) in the assay with MDA-MB-231; 20.8 µM (inactive) in the assay on SNB-75. Moreover, the GI50 is 58.1 µM (inactive) in the assay with HOP-62; 25.2 µM (inactive) in the assay on MDA-MB-435; 35.2 µM (inactive) in the assay on EKVX; > 100 µM (inactive) with SK-MEL-2; > 100 µM (inactive) with DU-145; greater than 100 µM with HCT-15. Also, in the assay with NCI-H460, the GI50 was > 100 µM (inactive).

As for `Cc1nc(-c2cc3cc(Cl)ccc3oc2=O)cc2c1c(=O)oc1ccc(Cl)cc12`, the GI50 with SR, in the assay with SN12C, with IGROV-1, in the assay with A498, in the assay on T47D and with HCC 2998 was > 100 µM (inactive) throughout. In addition, the GI50 in the assay on SNB-19, in the assay with OVCAR-3, in the assay on RPMI-8226, in the assay with MDA-MB-231, in the assay on HL-60 and in the assay on HOP-62 was > 100 µM (inactive) in each case. Also, the GI50 in the assay with MDA-MB-435 was > 100 µM (inactive); with EKVX, > 100 µM (inactive); in the assay on SK-MEL-2 it was > 100 µM (inactive); in the assay on DU-145, > 100 µM (inactive); in the assay with HCT-15, greater than 100 µM; in the assay on NCI-H460, > 100 µM (inactive).

`CCOC(=O)c1c(N2CCOCC2)[nH]c(=O)c(C(c2ccco2)c2c(O)c(C(=O)OCC)c(N3CCOCC3)[nH]c2=O)c1O`: the GI50 in the assay on SR, with SN12C, in the assay with CAKI-1, in the assay with A498, in the assay with T47D and in the assay with HCC 2998 was > 100 µM (inactive) throughout. The GI50 with SNB-19, in the assay on OVCAR-3, in the assay on RPMI-8226, in the assay with MDA-MB-231, in the assay with SNB-75 and with HOP-62 was > 100 µM (inactive) throughout. Further, the GI50 with MDA-MB-435 was > 100 µM (inactive); in the assay on EKVX, > 100 µM (inactive); in the assay on SK-MEL-2, > 100 µM (inactive); in the assay on DU-145, > 100 µM (inactive); in the assay with HCT-15, greater than 100 µM; with NCI-H460 it was > 100 µM (inactive).

Consider `O=C1CSC(c2cccc([N+](=O)[O-])c2)N1c1ccc(-c2ccc(-n3c(-c4ccccc4)nc4ccccc4c3=O)cc2)cc1` (centres undefined), for which the GI50 in the assay with SR is 19.7 µM (inactive); with SN12C, 48.6 µM (inactive); with IGROV-1, 35.3 µM (inactive); in the assay with CAKI-1, > 100 µM (inactive); with A498, 64.7 µM (inactive); in the assay with T47D it was 17.9 µM (inactive). In addition, the GI50 in the assay with HCC 2998 is > 100 µM (inactive); with SNB-19 it was 59.6 µM (inactive); in the assay on OVCAR-3, 23.3 µM (inactive); in the assay with RPMI-8226 it was 30 µM (inactive); with MDA-MB-231, 29.9 µM (inactive); in the assay with HL-60 it was 19.5 µM (inactive). The GI50 in the assay on HOP-62 was 63.7 µM (inactive); in the assay on MDA-MB-435 it was 27 µM (inactive); in the assay with EKVX, 36.3 µM (inactive); in the assay with SK-MEL-2 it was 29.2 µM (inactive); in the assay with DU-145, 38.4 µM (inactive); with HCT-15, 32.1 µM. In addition, the GI50 with NCI-H460 is 25.5 µM (inactive).

For `C=CCCC1CCCCNC1=S` (centres undefined), the GI50 with SR, in the assay on SN12C, with IGROV-1, in the assay on CAKI-1, with A498 and in the assay with T47D was > 10 µM (inactive) throughout. Moreover, the GI50 with HCC 2998, in the assay with SNB-19, with OVCAR-3, in the assay on RPMI-8226, with MDA-MB-231 and with HL-60 was > 10 µM (inactive) each time. For the same molecule, the GI50 in the assay with HOP-62 was > 10 µM (inactive); in the assay on MDA-MB-435, > 10 µM (inactive); in the assay on EKVX, > 10 µM (inactive); in the assay with SK-MEL-2 it was > 10 µM (inactive); with DU-145, > 10 µM (inactive); in the assay with HCT-15, greater than 10 µM. In addition, the GI50 with NCI-H460 was > 10 µM (inactive).

`CC(C)(C)OC(=O)/C=C/[C@@H](CCC(=O)/C=C/[C@H](/C=C\CCCC(=O)O)NC1(c2ccccc2)c2ccccc2-c2ccccc21)O[Si](C)(C)C(C)(C)C`: the GI50 is 19.4 µM (inactive) in the assay on SR; 15.8 µM (inactive) in the assay on SN12C; 16.5 µM (inactive) in the assay on IGROV-1; 17.9 µM (inactive) in the assay on CAKI-1; 19.2 µM (inactive) with A498; 12.6 µM (inactive) in the assay on T47D. Moreover, the GI50 in the assay with HCC 2998 is 16.8 µM (inactive); in the assay on SNB-19, 20.6 µM (inactive); in the assay with OVCAR-3, 16.7 µM (inactive); with RPMI-8226, 10.5 µM (inactive); in the assay with MDA-MB-231, 14.1 µM (inactive); in the assay on HL-60 it was 24.8 µM (inactive). Moreover, the GI50 is 17.5 µM (inactive) with HOP-62; 17.8 µM (inactive) in the assay on MDA-MB-435; 19.2 µM (inactive) with EKVX; 15.4 µM (inactive) with SK-MEL-2; 16.6 µM (inactive) with DU-145; 12.3 µM in the assay on HCT-15. Besides, the GI50 in the assay with NCI-H460 is 17.6 µM (inactive).

For the molecule `O=C(O)CCC(NC(=O)c1ccc(Nc2nc3cc(C(F)(F)F)ccc3nc2C(=O)O)cc1)C(=O)O` (centres undefined), the GI50 in the assay on SR was > 100 µM (inactive); in the assay with IGROV-1, > 100 µM (inactive); in the assay on A498, > 100 µM (inactive); in the assay on T47D, 48.3 µM (inactive); in the assay on HCC 2998 it was > 100 µM (inactive); in the assay on SNB-19, > 100 µM (inactive). In addition, the GI50 in the assay with OVCAR-3, with RPMI-8226, in the assay with MDA-MB-231, with SNB-75, in the assay on HL-60 and with HOP-62 was > 100 µM (inactive) in each case. In addition, the GI50 in the assay on MDA-MB-435 was > 100 µM (inactive); in the assay with EKVX it was > 100 µM (inactive); with SK-MEL-2 it was > 100 µM (inactive); in the assay on DU-145 it was > 100 µM (inactive); with HCT-15, greater than 100 µM; with NCI-H460, > 100 µM (inactive).

For the molecule `COc1ccc(/C=C2\CN(C)CC3=C2OC(N)=C(C#N)C3c2ccc(OC)cc2)cc1` (centres undefined), the GI50 is 15.2 µM (inactive) with SR; 35.4 µM (inactive) in the assay with SN12C; 15.9 µM (inactive) in the assay on IGROV-1; 69.7 µM (inactive) with CAKI-1; 35.4 µM (inactive) with A498; 13.6 µM (inactive) in the assay with T47D. Also, the GI50 in the assay on HCC 2998 is 23.8 µM (inactive); with SNB-19, > 86.7 µM (inactive); in the assay on OVCAR-3, 21.6 µM (inactive); with RPMI-8226, 9.82 µM (inactive); with MDA-MB-231 it was 42.4 µM (inactive); in the assay with HOP-62, > 77.4 µM (inactive). Further, the GI50 in the assay with MDA-MB-435 is 17.7 µM (inactive); with EKVX, 43.4 µM (inactive); with SK-MEL-2 it was > 45.9 µM (inactive); in the assay on DU-145, > 76.6 µM (inactive); in the assay with HCT-15, 55.6 µM; in the assay on NCI-H460, 24.9 µM (inactive).
